Assay results: US20250346616A1 (DIZAL (JIANGSU) PHARMACEUTICAL CO., LTD., priority 2022, published 2025)
pIC50: −log10 of the molar value.

Experiments:
[1] = target: Recombinant ROCK1 (Homo sapiens (Human), UniProt Q13464); assay: Lance Ultra Kinase Assay, ROCK1 inhibition; type: biochemical; details: ATP at Km, 30 min pre-incubation, 1 h reaction
Experimental: (§1) The inhibition potency of compounds against these enzymes was assessed using Lance Ultra Kinase Assay. In brief, recombinant kinases were pre-incubated in the presence or absence of compound at room temperature for 30 minutes. The reaction was initiated by the addition of the ATP (Km) and substrate peptide which could be phosphorylated by kinases in the reaction. After 1 h incubation, the reaction was stopped by the addition of the detection reagent mix containing EDTA. The fluorescence was measured at 615 nm and 665 nm, respectively with excitation wavelength at 320 nm. The calculated signal ratio of 665 nm/615 nm is proportional to the kinase activity.

[2] = target: Recombinant ROCK2 (Homo sapiens (Human), UniProt O75116); assay: Lance Ultra Kinase Assay, ROCK2 inhibition; type: biochemical; details: ATP at Km, 30 min pre-incubation, 1 h reaction
Chain of Recombinant ROCK2 (O75116 whole entry): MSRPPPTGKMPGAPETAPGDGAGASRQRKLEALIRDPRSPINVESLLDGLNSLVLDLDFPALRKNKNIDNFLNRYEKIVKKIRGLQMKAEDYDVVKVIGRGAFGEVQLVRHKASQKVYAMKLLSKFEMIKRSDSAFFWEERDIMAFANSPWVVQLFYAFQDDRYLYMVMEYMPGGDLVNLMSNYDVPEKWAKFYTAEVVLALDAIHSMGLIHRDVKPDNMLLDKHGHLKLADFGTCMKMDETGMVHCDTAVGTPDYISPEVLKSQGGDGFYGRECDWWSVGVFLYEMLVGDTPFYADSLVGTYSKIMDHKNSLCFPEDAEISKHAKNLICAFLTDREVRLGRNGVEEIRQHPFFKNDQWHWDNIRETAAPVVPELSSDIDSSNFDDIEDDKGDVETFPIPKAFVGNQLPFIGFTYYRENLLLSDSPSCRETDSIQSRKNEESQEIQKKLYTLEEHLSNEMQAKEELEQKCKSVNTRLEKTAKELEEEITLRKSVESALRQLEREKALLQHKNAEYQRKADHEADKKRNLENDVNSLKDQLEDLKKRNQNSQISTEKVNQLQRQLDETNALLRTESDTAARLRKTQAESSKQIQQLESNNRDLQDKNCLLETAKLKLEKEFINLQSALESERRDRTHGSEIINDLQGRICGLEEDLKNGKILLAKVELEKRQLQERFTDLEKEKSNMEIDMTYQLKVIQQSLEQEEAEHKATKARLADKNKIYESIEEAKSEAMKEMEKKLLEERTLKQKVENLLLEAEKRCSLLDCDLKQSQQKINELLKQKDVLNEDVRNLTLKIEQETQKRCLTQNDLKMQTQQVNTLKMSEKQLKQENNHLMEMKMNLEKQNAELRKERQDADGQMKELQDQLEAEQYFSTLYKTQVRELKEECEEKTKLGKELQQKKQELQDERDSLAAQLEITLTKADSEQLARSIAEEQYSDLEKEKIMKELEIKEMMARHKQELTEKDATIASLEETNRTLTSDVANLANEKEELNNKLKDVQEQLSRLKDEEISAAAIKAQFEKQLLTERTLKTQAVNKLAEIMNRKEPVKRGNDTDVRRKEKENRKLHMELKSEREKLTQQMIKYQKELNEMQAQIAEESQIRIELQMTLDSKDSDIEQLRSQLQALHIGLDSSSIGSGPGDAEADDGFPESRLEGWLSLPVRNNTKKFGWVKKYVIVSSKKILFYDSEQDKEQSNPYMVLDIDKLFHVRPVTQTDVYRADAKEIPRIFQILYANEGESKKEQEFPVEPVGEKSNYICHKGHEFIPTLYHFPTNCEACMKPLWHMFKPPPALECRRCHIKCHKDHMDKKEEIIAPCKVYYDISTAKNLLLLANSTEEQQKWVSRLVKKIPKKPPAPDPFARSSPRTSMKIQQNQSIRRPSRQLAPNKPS
Experimental: as §1

Chain of Recombinant ROCK1 (Q13464 whole entry): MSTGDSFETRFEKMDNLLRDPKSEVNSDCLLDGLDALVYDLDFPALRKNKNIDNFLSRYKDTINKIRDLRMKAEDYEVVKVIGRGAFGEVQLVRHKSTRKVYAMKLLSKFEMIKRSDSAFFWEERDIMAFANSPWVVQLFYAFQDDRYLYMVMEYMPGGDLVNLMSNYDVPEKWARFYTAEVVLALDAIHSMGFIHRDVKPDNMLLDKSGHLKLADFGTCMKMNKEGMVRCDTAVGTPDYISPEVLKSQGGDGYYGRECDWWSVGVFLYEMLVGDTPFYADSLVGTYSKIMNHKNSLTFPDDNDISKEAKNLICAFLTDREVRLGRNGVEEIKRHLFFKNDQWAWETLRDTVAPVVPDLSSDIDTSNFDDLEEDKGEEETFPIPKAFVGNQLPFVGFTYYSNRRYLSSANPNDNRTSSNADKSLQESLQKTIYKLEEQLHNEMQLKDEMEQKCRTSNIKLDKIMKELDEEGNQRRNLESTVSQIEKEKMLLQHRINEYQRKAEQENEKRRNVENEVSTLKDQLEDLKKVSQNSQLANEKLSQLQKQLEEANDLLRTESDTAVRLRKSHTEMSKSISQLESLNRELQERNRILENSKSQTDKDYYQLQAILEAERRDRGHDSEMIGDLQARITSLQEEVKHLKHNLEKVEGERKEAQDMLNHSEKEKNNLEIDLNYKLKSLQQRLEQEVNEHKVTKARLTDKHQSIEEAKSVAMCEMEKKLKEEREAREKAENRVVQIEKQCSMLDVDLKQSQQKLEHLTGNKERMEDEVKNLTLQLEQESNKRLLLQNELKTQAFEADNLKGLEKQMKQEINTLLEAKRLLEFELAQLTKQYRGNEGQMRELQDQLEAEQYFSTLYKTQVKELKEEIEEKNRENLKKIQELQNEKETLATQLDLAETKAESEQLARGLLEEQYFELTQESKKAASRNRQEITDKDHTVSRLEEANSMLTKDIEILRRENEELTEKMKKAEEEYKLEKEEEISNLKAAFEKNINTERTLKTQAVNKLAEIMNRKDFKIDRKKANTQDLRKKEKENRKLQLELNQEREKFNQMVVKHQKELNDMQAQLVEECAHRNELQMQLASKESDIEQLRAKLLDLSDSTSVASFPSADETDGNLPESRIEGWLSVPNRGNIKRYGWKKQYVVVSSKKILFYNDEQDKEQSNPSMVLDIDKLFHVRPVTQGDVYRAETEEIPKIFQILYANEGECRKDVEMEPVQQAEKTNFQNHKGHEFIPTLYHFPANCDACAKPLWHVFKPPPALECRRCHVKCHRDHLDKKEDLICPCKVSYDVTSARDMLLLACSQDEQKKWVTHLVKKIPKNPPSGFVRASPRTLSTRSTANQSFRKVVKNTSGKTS

pIC50 [1] | pIC50 [2] | Compound
8.14 | 8.40 | NCC(C(=O)Nc1cccc2c(-c3cn[nH]c3)c[nH]c12)C1CCOC1 (racemic) [Example 96, N-(3-(1H-pyrazol-4-yl)-1H-indol-7-yl)-3-amino-2-(tetrahydrofuran-3-yl)propanamide]
6.91 | 7.55 | CP(C)(=O)c1ccc(C(CN)C(=O)Nc2cccc3c(-c4cn[nH]c4)c[nH]c23)cc1 (racemic) [Example 97, 3-amino-2-[4-(dimethylphosphoryl)phenyl]-N-[3-(1H-pyrazol-4-yl)-1H-Indol-7-yl]propanamide]
8.04 | 8.37 | NCC(C(=O)Nc1cccc2c(-c3cn[nH]c3)c[nH]c12)c1ccccn1 (racemic) [Example 98, 3-amino-N-[3-(1H-pyrazol-4-yl)-1H-indol-7-yl]-2-(pyridin-2-yl)propanamide]
8.49 | 8.96 | CC(=O)NCc1ccc(C(CN)C(=O)Nc2cccc3c(-c4cn[nH]c4)c[nH]c23)cc1 (racemic) [Example 99, N-(3-(1H-pyrazol-4-yl)-1H-indol-7-yl)-2-(4-(acetamidomethyl)phenyl)-3-aminopropanamide]
8.80 | 9.09 | COc1cc(C(CN)C(=O)Nc2cccc3c(-c4cn[nH]c4)c[nH]c23)ccc1CO (racemic) [Example 101, 3-amino-2-[4-(hydroxymethyl)-3-methoxyphenyl]-N-[3-(1H-pyrazol-4-yl)-1H-indol-7-yl]propanamide]
8.89 | 9.25 | COc1cncc(C(CN)C(=O)Nc2cccc3c(-c4cn[nH]c4)c[nH]c23)c1 (racemic) [Example 102, 3-amino-2-(5-methoxypyridin-3-yl)-N-[3-(1H-pyrazol-4-yl)-1H-indol-7-yl]propanamide]
8.85 | 9.28 | Cn1ccc(C(CN)C(=O)Nc2cccc3c(-c4cn[nH]c4)c[nH]c23)cc1=O (racemic) [Example 103, 3-amino-2-(1-methyl-2-oxopyridin-4-yl)-N-[3-(1H-pyrazol-4-yl)-1H-indol-7-yl]propanamide]
8.70 | 9.05 | COc1ccc(C(N)C(=O)Nc2cccc3c(-c4cn[nH]c4)c[nH]c23)cc1 (racemic) [Example 104, 2-amino-2-(4-methoxyphenyl)-N-[3-(1H-pyrazol-4-yl)-1H-indol-7-yl]acetamide]
8.22 | 8.43 | CC(N)(C(=O)Nc1cccc2c(-c3cn[nH]c3)c[nH]c12)c1ccccc1 (racemic) [Example 107, 2-amino-2-phenyl-N-[3-(1H-pyrazol-4-yl)-1H-indol-7-yl]propanamide]
7.96 | 8.05 | NC(C(=O)Nc1cccc2c(-c3cn[nH]c3)c[nH]c12)C1CCCCC1 (racemic) [Example 122, N-(3-(1H-pyrazol-4-yl)-1H-indol-7-yl)-2-amino-2-cyclohexylacetamide]
8.77 | 8.77 | CN1CCN(C(C(=O)Nc2cccc3c(-c4cn[nH]c4)c[nH]c23)C2CCCCC2)CC1 (racemic) [Example 129, 2-cyclohexyl-2-(4-methylpiperazin-1-yl)-N-[3-(1H-pyrazol-4-yl)-1H-indol-7-yl]acetamide]
7.36 | 7.51 | O=C(Nc1cccc2c(-c3cn[nH]c3)c[nH]c12)C1CNCc2ccccc21 (racemic) [Example 133, N-(3-(1H-pyrazol-4-yl)-1H-indol-7-yl)-1,2,3,4-tetrahydroisoquinoline-4-carboxamide]
8.59 | 9.06 | NCC(NC(=O)c1cccc2c(-c3cn[nH]c3)c[nH]c12)c1ccccc1 (racemic) [Example 134, N-(2-amino-1-phenylethyl)-3-(1H-pyrazol-4-yl)-1H-indole-7-carboxamide]
8.55 | 9.07 | NCCC(NC(=O)c1cccc2c(-c3cn[nH]c3)c[nH]c12)c1ccccc1 (racemic) [Example 140, N-(3-amino-1-phenylpropyl)-3-(1H-pyrazol-4-yl)-1H-indole-7-carboxamide]
6.40 | 6.50 | CN1CCC(C(NC(=O)c2cccc3c(-c4cn[nH]c4)c[nH]c23)C2CCCCC2)CC1 (racemic) [Example 143, N-[cyclohexyl (1-methylpiperidin-4-yl)methyl]-3-(1H-pyrazol-4-yl)-1H-indole-7-carboxamide]
7.74 | 8.31 | NCC(NC(=O)c1cccc2c(-c3cn[nH]c3)c[nH]c12)c1ccc(CO)cc1 (racemic) [Example 146, N-(2-amino-1-(4-(hydroxymethyl)phenyl)ethyl)-3-(1H-pyrazol-4-yl)-1H-indole-7-carboxamide]
9.06 | 9.40 | NCC(Cc1ccccc1)NC(=O)c1cccc2c(-c3cn[nH]c3)c[nH]c12 (racemic) [Example 147, N-(1-amino-3-phenylpropan-2-yl)-3-(1H-pyrazol-4-yl)-1H-indole-7-carboxamide]

pIC50 [1] | pIC50 [2] | Compound
6.69 | 7.15 | CP(C)(=O)c1cccc(C(CN)NC(=O)c2cccc3c(-c4cn[nH]c4)c[nH]c23)c1 (racemic) [Example 151, (rac)-N-{2-amino-1-[3-(dimethylphosphoryl)phenyl]ethyl}-3-(1H-pyrazol-4-yl)-1H-indole-7-carboxamide]
8.10 | 8.37 | Cc1ccc(C(=O)OCc2ccc(C(CN)C(=O)Nc3cccc4c(-c5cn[nH]c5)c[nH]c34)cc2)c(C)c1 (single isomer, unassigned) [Example 5]
6.35 | 6.61 | Cc1ccc(C(=O)OCc2ccc(C(CN)C(=O)Nc3cccc4c(-c5cn[nH]c5)c[nH]c34)cc2)c(C)c1 (single isomer, unassigned) [Example 6]
7.51 | 7.82 | COc1cccc(C(CN)C(=O)Nc2cccc3c(-c4cn[nH]c4)c[nH]c23)c1 (single isomer, unassigned) [Example 17, N-(3-(1H-pyrazol-4-yl)-1H-indol-7-yl)-3-amino-2-(3-methoxyphenyl)propanamide]
6.90 | 7.15 | N#Cc1cccc(C(CN)C(=O)Nc2cccc3c(-c4cn[nH]c4)c[nH]c23)c1 (single isomer, unassigned) [Example 21, N-(3-(1H-pyrazol-4-yl)-1H-indol-7-yl)-3-amino-2-(3-cyanophenyl)propanamide]
8.40 | 8.52 | NCC(C(=O)Nc1cccc2c(-c3cn[nH]c3)c[nH]c12)C1CCCCC1 (single isomer, unassigned) [Example 24, N-(3-(1H-pyrazol-4-yl)-1H-indol-7-yl)-3-amino-2-cyclohexylpropanamide]
7.06 | 7.18 | NCC(C(=O)Nc1cccc2c(-c3cn[nH]c3)c[nH]c12)C1CCOCC1 (single isomer, unassigned) [Example 27, N-(3-(1H-pyrazol-4-yl)-1H-indol-7-yl)-3-amino-2-(tetrahydro-2H-pyran-4-yl)propanamide]
7.23 | 7.64 | COc1cccc([C@@H](C(=O)Nc2cccc3c(-c4cn[nH]c4)c[nH]c23)C2CCN(C)CC2)c1 (single isomer, unassigned) [Example 29, N-(3-(1H-pyrazol-4-yl)-1H-indol-7-yl)-2-(3-methoxyphenyl)-2-(1-methylpiperidin-4-yl) acetamide]
8.49 | 8.96 | COc1cccc([C@H](C(=O)Nc2cccc3c(-c4cn[nH]c4)c[nH]c23)C2CCN(C)CC2)c1 (single isomer, unassigned) [Example 30, N-(3-(1H-pyrazol-4-yl)-1H-indol-7-yl)-2-(3-methoxyphenyl)-2-(1-methylpiperidin-4-yl) acetamide]
7.01 | 7.30 | NCC(C(=O)Nc1cccc2c(-c3cn[nH]c3)c[nH]c12)c1cccnc1 (single isomer, unassigned) [Example 33, N-(3-(1H-pyrazol-4-yl)-1H-indol-7-yl)-3-amino-2-(pyridin-3-yl)propanamide]
8.74 | 9.12 | COc1cccc(C(CN2CCN(C)CC2)C(=O)Nc2cccc3c(-c4cn[nH]c4)c[nH]c23)c1 (single isomer, unassigned) [Example 35, N-(3-(1H-pyrazol-4-yl)-1H-indol-7-yl)-2-(3-methoxyphenyl)-3-(4-methylpiperazin-1-yl)propanamide]
6.49 | 6.76 | COc1cccc(C(CN2CCN(C)CC2)C(=O)Nc2cccc3c(-c4cn[nH]c4)c[nH]c23)c1 (single isomer, unassigned) [Example 36, N-(3-(1H-pyrazol-4-yl)-1H-indol-7-yl)-2-(3-methoxyphenyl)-3-(4-methylpiperazin-1-yl)propanamide]
6.76 | 6.94 | CN1CCN(CC(C(=O)Nc2cccc3c(-c4cn[nH]c4)c[nH]c23)c2ccccc2)CC1 (single isomer, unassigned) [Example 39, N-(3-(1H-pyrazol-4-yl)-1H-indol-7-yl)-3-(4-methylpiperazin-1-yl)-2-phenylpropanamide]
6.95 | 7.15 | CN1CCC(C(C(=O)Nc2cccc3c(-c4cn[nH]c4)c[nH]c23)c2ccccc2)CC1 (single isomer, unassigned) [Example 44, N-(3-(1H-pyrazol-4-yl)-1H-indol-7-yl)-2-(1-methylpiperidin-4-yl)-2-phenylacetamide]
6.70 | 6.92 | CN1CCN(C(C(=O)Nc2cccc3c(-c4cn[nH]c4)c[nH]c23)c2ccccc2)CC1 (single isomer, unassigned) [Example 47, N-(3-(1H-pyrazol-4-yl)-1H-indol-7-yl)-2-(4-methylpiperazin-1-yl)-2-phenylacetamide]
8.80 | 9.08 | CN1CCN(C(C(=O)Nc2cccc3c(-c4cn[nH]c4)c[nH]c23)c2ccccc2)CC1 (single isomer, unassigned) [Example 48, N-(3-(1H-pyrazol-4-yl)-1H-indol-7-yl)-2-(4-methylpiperazin-1-yl)-2-phenylacetamide]
